Earlier results as cited in patent US20180177735A1, “Stable Pharmaceutical Composition Of Phytonadione And A Novel Process For Preparation Thereof” (Amneal Pharmaceuticals Company GmbH, priority 2016, published 2018).
Like-named read-outs stand apart in the source and are kept apart here.

solubility (in chloroform): soluble
solubility (in water): insoluble
SMILES: CC1=C(C/C=C(\C)CCC[C@H](C)CCC[C@H](C)CCCC(C)C)C(=O)c2ccccc2C1=O [Phytonadione]
solubility (in ethanol): slightly soluble (1 g of material requires 100 to 1000 ml of solute to dissolve)
